Molecules are shown by their SMILES. pIC50: −log10 of the molar value. Read-outs that look alike come from different tables or passages of the source.

Consider 31 compounds from patent US6331553A, “Aromatic amine derivatives having NOS inhibiting action” (Chugai Seiyaku Kabushiki Kaisha, priority 1996, dated 2001).

Experiment [1] concerns the target T1, nNOS (Rattus norvegicus, UniProt P29476).
T1 construct: a soluble cytosolic fraction of the finally obtained supernatant was used as the crude enzyme of nNOS; from tissue; host or cells: rat cerebral cortex, soluble cytosolic fraction (100,000×g supernatant)
In words: biochemical. On the set-up: species or system male Sprague Dawley (SD) rats (cerebral cortex). The note with it: for Selectivity eNOS/nNOS: ratio of IC50 values eNOS/nNOS; for Selectivity iNOS/nNOS: ratio of IC50 values iNOS/nNOS.
Experimental: The crude enzyme of nNOS was prepared by the following procedure. Normal untreated male Sprague Dawley (SD) rats (body weight, 300-400 g) were decapitated; the whole brain was immediately taken out from each animal and the cerebral cortex was separated on ice. Then, 5 volumes of 50 mM Tris-HCl containing 1 mM DTT (pH 7.4) was added and the mixture was homogenized for 3 min and centrifuged at 1,000×g for 10 min. The resulting supernatant was further centrifuged at 100,000×g for 60 min and a soluble cytosolic fraction of the finally obtained supernatant was used as the crude enzyme of nNOS.

Experiment [2] concerns the target T2, eNOS (Bos taurus, UniProt P29473).
T2 construct: the resulting supernatant was used as the crude enzyme of eNOS; endogenous in cells; host or cells: CPAE (cow pulmonary arterial endothelium cells), 1% Triton X-100 extract
In words: Inhibitory effect on crude eNOS (conversion of L-[3H]arginine to L-[3H]citrulline). Type of experiment: biochemical, Cow (pulmonary arterial endothelium cells, CPAE). As for the experimental part: (§1) Compounds of the invention were evaluated for their inhibitory effect on the presently known three NOS isoforms.
Crude enzymes of the respective NOS isoforms were prepared by the following procedures (Nagafuji et al., Neuroreport 6, 1541-1545, 1995).
The crude enzyme of eNOS was prepared by the following procedure. Cow pulmonary arterial endothelium cells (CPAE) were cultured in a MEM medium containing 20% FBS. Several days later, the cells were detached from the flask using a 0.25% trypsin solution containing 1 mM EDTA and, after addition of a suitable amount of FBS, centrifuged at 1,000 rpm for 10 min. A suitable amount of Ca- and Mg-free phosphate buffer (pH 7.4) was added to the precipitating cells and they were centrifuged at 1,000 rpm for 10 min. The same step was repeated to wash the cells which, upon addition of 50 mM Tris-HCl (pH 7.4) containing 1% Triton X-100 and 1 mM DTT, were left to stand in ice for 1 h. Subsequently, the mixture was homogenized for 3 min and kept in ice for 30 min with occasional stirring. Finally, the mixture was centrifuged at 100,000×g for 60 min and the resulting supernatant was used as the crude enzyme of eNOS.
The method of measuring NOS activity was basically the same as already reported by the present inventors and consisted of determining quantitatively the conversion of a substrate L-[^3 H]arginine to a reaction product L-[^3 H] citrulline (Nagafuji et al., in Brain Edema IX (Ito et al, eds.) 60, pp. 285-288, 1994; Nagafuji et al., Neuroreport 6, 1541-1545, 1995)
The reaction solution consisted of 100 nM L-[^3 H] arginine, a prepared crude NOS enzyme sample (10-30 μg/ml protein), 1.25 mM CaCl2, 1 mM EDTA, 10 μg/ml calmodulin, 1 mM NADPH, 100 μM tetrahydrobiopterine, 10 μM FAD, 10 μM FMN and 50 mM Tris-HCl (pH 7.4), to which one of the compounds of the invention or one of the control compounds was added.
(§2) The reaction was started by addition of L-[^3 H] arginine. After incubation at 37° C. for 10 min, the reaction was terminated by addition of 2 ml of 50 mM Tris-HCl (pH 5.5) containing 1 mM EDTA and placing the mixture on ice. The reaction solution was passed through a cation-exchange resin column (Dowex AG50WX-8, Na^+ form, 3.2 ml) to separate the reaction product L-[^3 H] citrulline from the unreacted residual substrate L-[^3 H] arginine. The eluate was combined with another eluate resulting from the passage of a given amount of distilled water through the column and put into a minivial for recovery of L-[^3 H] citrulline. Thereafter, a scintillation fluid was added and the contained radioactivity was measured with a liquid scintillation counter to determine the amount of L-[^3 H] citrulline.
(§3) The activity of nNOS or eNOS was determined by subtracting the activity detected in the absence of CaCl2 and calmodulin from the activity detected in the presence of CaCl2 and calmodulin. The activity of iNOS was detected in the absence of CaCl2 and calmodulin. The protein concentration of each crude enzyme sample was determined with a micro-assay kit of Bio Rad Co. Each Experiment was conducted in a duplicate.
Table 81 lists the mean values of IC50 (the concentration necessary to inhibit 50% activity) of all test compounds against each NOS isoform. The table also lists the ratios of IC50 values to each other as an index of selectivity.

For experiment [3], the target named is T3, iNOS (Rattus norvegicus, UniProt Q06518).
T3 construct: a soluble cytosolic fraction of the finally obtained supernatant was used as the crude enzyme of iNOS; from tissue; host or cells: lungs of LPS-treated rats, soluble cytosolic fraction (100,000×g supernatant)
Put plainly: Inhibitory effect on crude iNOS (conversion of L-[3H]arginine to L-[3H]citrulline). As to conditions: for pIC50: mean values, duplicate, crude enzyme from lungs of LPS-treated rats, 37° C. 10 min, read-out: Inhibitory action IC50 iNOS; for Selectivity eNOS/iNOS: ratio of IC50 values eNOS/iNOS. It counts as biochemical, Rats (lungs, LPS treated). As to the method: as §1
The crude enzyme of iNOS was prepared by the following procedure. Rats were administered LPS (10 mg/kg) intraperitoneally and, 6 h later, perfused in a transcardiac manner with physiological saline containing 10 U/ml of heparin; thereafter, lungs were taken out. Subsequently, 5 volumes of 50 mM Tris-HCl containing 1 mM DTT (pH 7.4) was added and the mixture was homogenized for 3 min, followed by centrifugation of the homogenate at 1,000×g for 10 min. The resulting supernatant was centrifuged at 100,000×g for 60 min and a soluble cytosolic fraction of the finally obtained supernatant was used as the crude enzyme of iNOS.
as §2, §3
The table also lists the ratios of IC50 values to each other as an index of selectivity.

Setting [4] is: mean values, duplicate, crude enzyme from rat cerebral cortex, 37° C. 10 min, read-out: Inhibitory action IC50 nNOS.
[5] abbreviates: mean values, duplicate, crude enzyme from CPAE cells, 37° C. 10 min, read-out: Inhibitory action IC50 eNOS.

T2 sequence (P29473 2-1205): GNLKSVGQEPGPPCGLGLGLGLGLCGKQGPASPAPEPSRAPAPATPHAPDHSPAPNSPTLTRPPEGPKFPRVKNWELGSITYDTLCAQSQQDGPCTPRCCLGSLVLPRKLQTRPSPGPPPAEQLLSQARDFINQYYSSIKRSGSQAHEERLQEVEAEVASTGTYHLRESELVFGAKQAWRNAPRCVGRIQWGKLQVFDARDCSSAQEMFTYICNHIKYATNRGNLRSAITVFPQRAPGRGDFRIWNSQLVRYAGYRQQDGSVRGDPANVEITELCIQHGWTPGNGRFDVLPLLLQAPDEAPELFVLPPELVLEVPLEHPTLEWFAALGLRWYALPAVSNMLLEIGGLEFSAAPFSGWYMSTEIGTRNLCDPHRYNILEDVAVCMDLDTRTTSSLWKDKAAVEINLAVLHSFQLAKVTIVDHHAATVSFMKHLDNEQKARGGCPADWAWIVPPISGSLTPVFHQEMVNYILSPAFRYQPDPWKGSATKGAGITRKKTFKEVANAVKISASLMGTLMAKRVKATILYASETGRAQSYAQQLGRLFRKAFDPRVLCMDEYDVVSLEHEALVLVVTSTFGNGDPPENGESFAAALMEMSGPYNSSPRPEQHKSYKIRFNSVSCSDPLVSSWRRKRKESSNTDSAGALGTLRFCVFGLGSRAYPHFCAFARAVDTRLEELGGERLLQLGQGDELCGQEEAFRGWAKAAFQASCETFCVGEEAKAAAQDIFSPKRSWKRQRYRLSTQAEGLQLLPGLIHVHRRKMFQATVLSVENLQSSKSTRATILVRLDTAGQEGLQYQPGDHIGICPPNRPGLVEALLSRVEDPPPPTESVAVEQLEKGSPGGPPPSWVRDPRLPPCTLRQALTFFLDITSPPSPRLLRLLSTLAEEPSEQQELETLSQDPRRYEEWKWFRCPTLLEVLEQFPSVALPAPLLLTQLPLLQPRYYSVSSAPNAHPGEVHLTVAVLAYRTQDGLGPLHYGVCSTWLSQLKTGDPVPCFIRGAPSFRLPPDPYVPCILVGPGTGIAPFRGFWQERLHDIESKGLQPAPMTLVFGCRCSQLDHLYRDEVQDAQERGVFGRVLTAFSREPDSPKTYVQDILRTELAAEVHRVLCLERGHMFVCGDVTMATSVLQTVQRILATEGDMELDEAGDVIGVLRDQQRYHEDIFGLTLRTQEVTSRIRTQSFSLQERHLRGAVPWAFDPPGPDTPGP

Regarding `COc1c(CN)cccc1Nc1cc(C)ccn1` [Example 541], the pIC50 (commonly the negative decadic logarithm of the IC50, by convention in mol/L) in experiment [1] (setting [4]) was 7.59; in experiment [2] (setting [5]) it was 6.15. Besides, the “Selectivity eNOS/nNOS” value in experiment [1] is 28.
On the same counts, the results for `COc1ccc([N+](=O)[O-])c(Nc2cccc(CN)c2OC)n1` [Example 465] are 7.51, 6.00 and 32.
On the same counts, the results for `Cc1ccc([N+](=O)[O-])c(Nc2cccc(CN)c2)n1.Cl` [Example 52, 2-(3-aminomethylphenylamino)-6-methyl-3-nitropyridine hydrochloride] are 7.10, 5.83 and 19.
On the same counts, the results for `COc1ccc([N+](=O)[O-])c(Nc2ccc(CCN)cc2)n1` [Example 460] are 6.95, 5.91 and 11.
`CCc1ccc([N+](=O)[O-])c(Nc2cccc(CN)c2)n1.Cl` [Example 53, 2-(3-aminomethylphenylamino)-6-ethyl-3-nitropyridine hydrochloride]: the figures for the negative logarithm of the IC50 (pIC50) in experiment [1] (setting [4]) and in experiment [2] (setting [5]) were 7.06 and 5.18, respectively. Besides, the “Selectivity eNOS/nNOS” value in experiment [1] came to 77.
On the same counts, the results for `COc1ccc([N+](=O)[O-])c(Nc2cccc(CN)c2C)n1` [Example 458] are 7.68, 6.39 and 19.
`COc1ccc([N+](=O)[O-])c(Nc2ccc(Cl)c(CN)c2)n1` [Example 466]: the results for the pIC50 in experiment [1] (setting [4]) and in experiment [2] (setting [5]) were 7.45 and 6.38, respectively. Also, in experiment [1], the “Selectivity eNOS/nNOS” value worked out at 12.
For the compound `Cc1ccnc(Nc2cccc(C3(N)CCC3)c2)c1` [Example 488], the negative-log IC50 (pIC50) is 7.40 in experiment [1] (setting [4]) and 6.53 in experiment [2] (setting [5]). In addition, the “Selectivity eNOS/nNOS” value in experiment [1] came to 8.
On the same counts, the results for `Cc1ccnc(Nc2cccc(CN)c2C)c1` [Example 481] are 7.11, 5.70 and 25.
On the same counts, the results for `CCOc1c(Nc2cc(C)ccn2)ccc(Cl)c1CN` [Example 521] are 7.71, 6.31 and 25.
`Cc1ccnc(Nc2ccc(CCN)cc2)c1` [Example 489] showed a pIC50 in experiment [1] of 7.66.
Consider `COc1ccc([N+](=O)[O-])c(Nc2cccc(CN)c2)c1` [Example 153], for which the pIC50 in experiment [1] (setting [4]) was 7.53; in experiment [2] (setting [5]), 6.23. Moreover, the “Selectivity eNOS/nNOS” value in experiment [1] was 20.
For `COc1ccc([N+](=O)[O-])c(Nc2cccc(CN)c2Cl)n1` [Example 469], in that order: 7.40, 6.00 and 25.
For `CCOc1ccc(Nc2cc(C)ccn2)cc1CN` [Example 483], the figures for the pIC50 in experiment [1] (setting [4]) and in experiment [2] (setting [5]) were 7.18 and 6.15, respectively. The “Selectivity eNOS/nNOS” value in experiment [1] was 11.
For `Cc1ccnc(Nc2ccc(Cl)c(CN)c2)c1` [Example 491], in that order: 7.34, 5.75 and 39.
For `CCOc1ccc([N+](=O)[O-])c(Nc2cccc(CN)c2)n1` [Example 57], in that order: 7.15, 6.02 and 13.
For `COc1ccc([N+](=O)[O-])c(Nc2cccc(C(C)(C)N)c2)n1` [Example 462], in that order: 7.79, 6.59 and 16.
`CSc1ccc([N+](=O)[O-])c(Nc2cccc(CN)c2)n1` [Example 61]: the results for the pIC50 in experiment [1] (setting [4]) and in experiment [2] (setting [5]) were 6.90 and 5.79, respectively. Moreover, in experiment [1], the “Selectivity eNOS/nNOS” value is reported as 13.
`COc1ccc([N+](=O)[O-])c(Nc2cccc(CN)c2)n1` [Example 18]: the negative-log IC50 (pIC50) in experiment [1] (setting [4]) was 7.65; in experiment [3], 6.04; in experiment [2] (setting [5]) it was 6.49. Also, the “Selectivity eNOS/nNOS” value in experiment [1] amounted to 14. Also, the “Selectivity iNOS/nNOS” value in experiment [1] was 41. Further, in experiment [3], the “Selectivity eNOS/iNOS” value was 0.14.
In the case of `CCOc1c(Nc2cc(C)ccn2)ccc(C)c1CN` [Example 522], the negative logarithm of the IC50 (pIC50) in experiment [1] (setting [4]) was 7.71; in experiment [2] (setting [5]), 6.40. Also, the “Selectivity eNOS/nNOS” value in experiment [1] is on record as 20.
For `Cc1ccnc(Nc2cccc(CN)c2OC(C)C)c1` [Example 543], in that order: 7.90, 6.60 and 20.
Regarding `Cc1ccnc(Nc2ccccc2CCN)c1` [Example 484], in experiment [1], the pIC50 was 7.16 and the “Selectivity eNOS/nNOS” value was 18. For the same compound, in experiment [2], the pIC50 is 5.90.
Regarding `COc1ccc([N+](=O)[O-])c(Nc2ccc(F)c(CN)c2)n1` [Example 467], the pIC50 is 7.71 in experiment [1] (setting [4]) and 6.56 in experiment [2] (setting [5]). For the same compound, the “Selectivity eNOS/nNOS” value in experiment [1] was found to be 14.
With `Cc1ccnc(Nc2cccc(CN)c2)c1` [Example 478], the pIC50 was 7.21 in experiment [1] (setting [4]) and 6.35 in experiment [2] (setting [5]). In experiment [1], the “Selectivity eNOS/nNOS” value is 7.
In the case of `Cc1ccnc(Nc2cccc(CN)c2Cl)c1` [Example 485], the pIC50 in experiment [1] (setting [4]) is 7.26. In addition, in experiment [1], the “Selectivity eNOS/nNOS” value is given as 53 and the “Selectivity iNOS/nNOS” value was determined as 32. Besides, in experiment [3], the negative-log IC50 (pIC50) is 5.75 and the “Selectivity eNOS/iNOS” value was 1.6. For the same compound, the pIC50 in experiment [2] (setting [5]) is 5.54.
In the case of `Cc1ccnc(Nc2cccc(C(C)(C)N)c2)c1` [Example 479], the pIC50 in experiment [1] (setting [4]) was 7.17; in experiment [2] (setting [5]), 6.10. Besides, in experiment [1], the “Selectivity eNOS/nNOS” value came out at 12.
For `CCOc1c(CN)cccc1Nc1nc(OC)ccc1[N+](=O)[O-]` [Example 468], the results for the pIC50 in experiment [1] (setting [4]) and in experiment [2] (setting [5]) were 7.25 and 5.61, respectively. The “Selectivity eNOS/nNOS” value in experiment [1] is given as 44.
For `CCc1ccc(Nc2cc(C)ccn2)cc1CN` [Example 482], in that order: 7.30, 5.87 and 27.
For `CCOc1c(CN)cccc1Nc1cc(C)ccn1` [Example 490], the negative logarithm of the IC50 (pIC50) was 7.74 in experiment [1] (setting [4]) and 6.46 in experiment [2] (setting [5]). The “Selectivity eNOS/nNOS” value in experiment [1] amounted to 19.
For `CCCOc1c(CN)cccc1Nc1cc(C)ccn1` [Example 506], in that order: 7.54, 5.89 and 45.
On the same counts, the results for `Cc1ccc([N+](=O)[O-])c(Nc2cccc(CN)c2)c1` [Example 151] are 6.90, 6.17 and 5.
